The results in this text go back to ChEMBL document CHEMBL1933028, “Discovery of cyclic amine-substituted benzoic acids as PPARα agonists” (Bioorg Med Chem Lett, 2012).

Series [1] can be described thus: Total clearance in rat at 1 mg/kg, po. It is filed as ADME, organism-based. The following applies: in vivo. Further details: dose 1 mg/kg, route oral.
Series [2] concerns Canis familiaris. The experiment in a line: Antidyslipidemic activity in high-fat diet fed dog assessed as decrease in total cholesterol at 0.03 mg/kg, po administered QD for 1 week (reference value: 205 +/- 6 mg/dL). The series is classed as functional, Canis lupus familiaris.
Series [3] can be described thus: Oral bioavailability in rat at 1 mg/kg. The series is classed as ADME, organism-based. The following applies: in vivo.
Series [4] has as its system Canis familiaris. The experiment in a line: Antidyslipidemic activity in high-fat diet fed dog assessed as decrease in non-HDL cholesterol at 0.03 mg/kg, po administered QD for 1 week (reference value: 75 +/- 5 mg/dL). The series is classed as functional, Canis lupus familiaris.
The nature of series [5]: Oral bioavailability in dog at 0.3 mg/kg. It is filed as ADME, organism-based, Canis lupus familiaris. The following applies: in vivo.
For series [6], the system named is Canis familiaris. The experiment in a line: Antidyslipidemic activity in high-fat diet fed dog assessed as decrease in non-HDL cholesterol at 0.01 mg/kg, po administered QD for 1 week (reference value: 75 +/- 5 mg/dL). The series is classed as functional, Canis lupus familiaris.
Series [7] relates to Canis familiaris. Kind of series: Toxicity in high-fat diet fed dog assessed as effect on food intake at 0.01 mg/kg, po administered QD for 1 week (reference value: 3.67+/-0.09 kg). It is filed as organism-based, Canis lupus familiaris. The arrangement: dose 0.01 mg/kg, route oral. The following applies: in vivo, 168 h.
Series [8] can be described thus: Half life in dog at 0.3 mg/kg, po. The arrangement: dose 0.3 mg/kg, route oral. The following applies: in vivo. The series is classed as ADME, organism-based, Canis lupus familiaris.
Series [9] has as its system Canis familiaris. Kind of series: Antidyslipidemic activity in high-fat diet fed dog assessed as decrease in free fatty acid at 0.01 mg/kg, po administered QD for 1 week (reference value: 0.624 +/- 0.057 mEq/L). The series is classed as functional, Canis lupus familiaris.
Series [10] addresses T1, Peroxisome proliferator-activated receptor delta (Homo sapiens, UniProt Q03181).
T1 sequence (Q03181 whole entry): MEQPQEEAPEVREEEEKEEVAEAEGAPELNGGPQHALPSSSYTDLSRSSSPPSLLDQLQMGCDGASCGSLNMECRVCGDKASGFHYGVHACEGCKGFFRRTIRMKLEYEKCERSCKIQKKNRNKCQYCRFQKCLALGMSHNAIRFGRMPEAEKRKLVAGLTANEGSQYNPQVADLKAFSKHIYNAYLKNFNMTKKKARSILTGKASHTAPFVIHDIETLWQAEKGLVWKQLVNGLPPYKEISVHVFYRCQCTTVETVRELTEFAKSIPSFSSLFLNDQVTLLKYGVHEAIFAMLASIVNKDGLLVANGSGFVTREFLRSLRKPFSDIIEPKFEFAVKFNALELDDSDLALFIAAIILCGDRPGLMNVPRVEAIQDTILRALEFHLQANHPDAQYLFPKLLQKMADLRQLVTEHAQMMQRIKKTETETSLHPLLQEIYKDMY
The experiment in a line: Transactivation of human PPARdelta expressed in CHO-K1 cells. It is filed as cell-based.

In series [11] the test system is Canis familiaris. The experiment in a line: Antidyslipidemic activity in high-fat diet fed dog assessed as decrease in serum triglyceride level at 0.01 mg/kg, po administered QD for 1 week (reference value: 98 +/- 4 mg/dL). The series is classed as functional, Canis lupus familiaris.
The nature of series [12]: Agonist activity at hamster PPARdelta. It is filed as functional, Cricetinae.
In series [13] the target is T2, Peroxisome proliferator-activated receptor gamma (Mus musculus, UniProt P37238).
T2 sequence (P37238 whole entry): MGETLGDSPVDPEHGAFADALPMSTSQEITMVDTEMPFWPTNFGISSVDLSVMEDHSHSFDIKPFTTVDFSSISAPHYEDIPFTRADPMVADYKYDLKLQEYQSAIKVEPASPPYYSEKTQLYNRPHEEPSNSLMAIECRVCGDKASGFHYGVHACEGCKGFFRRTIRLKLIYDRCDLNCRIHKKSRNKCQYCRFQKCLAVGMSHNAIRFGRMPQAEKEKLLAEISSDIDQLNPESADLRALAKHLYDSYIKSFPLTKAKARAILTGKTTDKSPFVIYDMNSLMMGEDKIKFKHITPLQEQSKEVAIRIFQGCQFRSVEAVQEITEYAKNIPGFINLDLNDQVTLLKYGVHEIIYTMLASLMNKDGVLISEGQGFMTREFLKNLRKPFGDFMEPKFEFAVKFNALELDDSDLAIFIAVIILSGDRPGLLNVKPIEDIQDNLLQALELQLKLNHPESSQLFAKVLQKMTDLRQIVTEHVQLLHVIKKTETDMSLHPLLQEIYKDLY
Kind of series: Agonist activity at mouse PPARgamma. The series is classed as functional.

Series [14] concerns Canis familiaris. Kind of series: Toxicity in high-fat diet fed dog assessed as change in body weight at 0.003 mg/kg, po administered QD for 1 week (reference value: 14.8 +/- 0.7 kg). The series is classed as organism-based, Canis lupus familiaris. Further details: dose 0.003 mg/kg, route oral. Particulars: in vivo, 168 h.
The test system of series [15] is Canis familiaris. Kind of series: Toxicity in high-fat diet fed dog assessed as effect on food intake at 0.003 mg/kg, po administered QD for 1 week (reference value: 3.67+/-0.09 kg). The series is classed as organism-based, Canis lupus familiaris. Further details: dose 0.003 mg/kg, route oral. Particulars: in vivo, 168 h.
Series [16] deals with T3, Peroxisome proliferator-activated receptor gamma (Canis lupus familiaris, UniProt Q4U3Q4).
T3 sequence (Q4U3Q4 whole entry): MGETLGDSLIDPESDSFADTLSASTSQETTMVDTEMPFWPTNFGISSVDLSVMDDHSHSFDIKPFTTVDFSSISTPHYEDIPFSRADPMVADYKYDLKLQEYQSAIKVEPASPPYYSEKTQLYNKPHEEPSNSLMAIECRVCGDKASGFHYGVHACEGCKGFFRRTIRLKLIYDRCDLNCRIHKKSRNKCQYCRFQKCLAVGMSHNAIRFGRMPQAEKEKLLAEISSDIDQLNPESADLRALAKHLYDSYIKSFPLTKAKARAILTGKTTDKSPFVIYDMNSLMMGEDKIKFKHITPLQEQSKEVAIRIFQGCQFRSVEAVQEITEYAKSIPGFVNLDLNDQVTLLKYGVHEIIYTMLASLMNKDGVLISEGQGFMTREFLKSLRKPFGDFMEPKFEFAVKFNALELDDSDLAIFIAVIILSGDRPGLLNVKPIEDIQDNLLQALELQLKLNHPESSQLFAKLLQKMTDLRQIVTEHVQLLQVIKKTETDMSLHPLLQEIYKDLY
Kind of series: Agonist activity at dog PPARgamma. The series is classed as functional.

Series [17] has as its target T4, Peroxisome proliferator-activated receptor alpha (Canis lupus familiaris, UniProt Q95N78).
T4 sequence (Q95N78 whole entry): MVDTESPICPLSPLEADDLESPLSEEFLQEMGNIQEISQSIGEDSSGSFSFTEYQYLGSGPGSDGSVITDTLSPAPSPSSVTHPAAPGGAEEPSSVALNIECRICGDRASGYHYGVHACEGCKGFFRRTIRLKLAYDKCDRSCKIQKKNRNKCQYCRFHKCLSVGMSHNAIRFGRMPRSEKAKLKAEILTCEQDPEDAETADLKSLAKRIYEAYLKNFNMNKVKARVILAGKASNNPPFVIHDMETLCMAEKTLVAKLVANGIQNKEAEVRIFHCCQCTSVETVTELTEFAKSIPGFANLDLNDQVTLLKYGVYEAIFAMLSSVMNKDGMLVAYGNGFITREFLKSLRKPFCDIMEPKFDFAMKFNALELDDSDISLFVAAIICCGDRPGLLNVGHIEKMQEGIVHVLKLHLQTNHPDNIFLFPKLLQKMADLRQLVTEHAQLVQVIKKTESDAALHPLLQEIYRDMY
The experiment in a line: Agonist activity at dog PPARalpha. The series is classed as functional.

Structures are written as SMILES.

`Cc1nc(-c2ccc(Cl)cc2)sc1C(=O)N[C@H]1CCCN(c2cccc(C(=O)O)c2)C1` came in with a CL/F in series [1] of 1.53 mL/min/kg. Moreover, the Activity turned out to be 169 mg/dL in series [2]; 42 mg/dL in [4]; 50 mg/dL in series [6]; 3.91 kg in series [7]; 0.651 mEq/L in series [9]; 48 mg/dL in series [11]. Further, the Activity in series [14] was found to be 15.3 kg; in [15] it was 3.85 kg. In addition, the bioavailability is 47.6% in [3] and 73.1% in [5]. Further, the half-life in [8] was 74 h. In addition, the EC50 is 3 µM in series [10]; over 7.1 µM in [12]; 12 µM in [13]; 11 µM in [16]; 0.19 µM in series [17].

The CL/F is the apparent clearance, not corrected for the fraction that reaches the circulation. By bioavailability is commonly meant the share of a dose that reaches the circulation, judged against a reference dose that is usually intravenous. Read a low bioavailability as poor availability. As a reminder, the half-life is how long it takes for the measured level to halve. Low readings indicate rapid decline, high ones slow decline. Usually EC50 stands for the concentration that produces a half-maximal response.
